Converted amounts (≈) assume the structure as drawn.
What was measured:
[1] = tested on: Mycobacterium tuberculosis H37Rv; test: Antimycobacterial in vitro screening, microdilution broth panel method, Alamar Blue; type: cell-based; details: 336 h, M. tuberculosis H37Rv, Middlebrook 7H9, 14 days of incubation
[2] = tested on: PET in spinach chloroplasts; test: Photosynthetic electron transport (PET) inhibition, DCPIP photoreduction; type: biochemical, Spinacia oleracea L.; details: for IC50: DCPIP photoreduction
Description: The inhibition of photosynthetic electron transport (PET) in spinach chloroplasts was determined spectrophotometrically (Genesys 6, Thermo Scientific, Madison, WI, USA) using an artificial electron acceptor 2,6-dichlorophenol-indophenol (DCPIP). The rate of photosynthetic electron transport was monitored as a photoreduction of DCPIP. Chloroplasts were prepared from Spinacia oleracea L.. The measurements were carried out in phosphate buffer (0.02 mol/L, pH 7.2) containing sucrose (0.4 mol/L), MgCl2 (0.005 mol/L) and NaCl (0.015 mol/L). The chlorophyll concentration was 30 mg/L and the samples were irradiated (~100 W/m^2 with 10 cm distance) with a halogen lamp (250 W). […] The studied compound were dissolved in DMSO due to their limited water solubility. […] The efficiency of studied compounds was expressed as 50% inhibition concentration relative to the untreated control. The standard for these measurements was DCMU (Diurone®).

[3] = Lipophilicity HPLC determination (logk); type: physicochemical; details: HPLC capacity factor, C18, MeOH 70%/H2O 30%, 30 °C
[4] = tested on: Aspergillus fumigatus 231; test: Antifungal evaluation, microdilution broth method; type: cell-based; details: Aspergillus fumigatus, 231, AF
Description: (§1) Antifungal evaluation was also accomplished with microdilution broth method. On the contrary, there was used RPMI 1640 broth with glutamine as medium and conditions were humid and dark atmosphere, pH 7.0 (adjusted with 0.165 M morpholinepropanesulfonic acid, MOPS) and 35 °C. 8 fungal strains were used (Candida albicans ATCC 44859, Candida tropicalis 156, Candida krusei E28, Candida glabrata 20/I, Trichosporon asahii 1188, Aspergillus fumigatus 231, Lichtheimia corymbifera 272, Trichophyton mentagrophytes 445) together with four antimycotic standards amphotericin B, voriconazole, nystatin and fluconazole.

[5] = tested on: Candida albicans ATCC 44859; test: Antifungal evaluation, microdilution broth method; type: cell-based; details: Candida albicans, ATCC44859, CA
Description: as §1

[6] = tested on: Lichtheimia corymbifera 272; test: Antifungal evaluation, microdilution broth method; type: cell-based; details: Lichtheimia corymbifera, 272, LC
Description: as §1

Trichosporon asahii 1188 = test: Antifungal evaluation, microdilution broth method; type: cell-based; details: Trichosporon asahii, 1188, TA
Description: as §1

Candida tropicalis 156 = test: Antifungal evaluation, microdilution broth method; type: cell-based; details: Candida tropicalis, 156, CT
Description: as §1

[7] = tested on: Trichophyton mentagrophytes 445; test: Antifungal evaluation, microdilution broth method; type: cell-based; details: Trichophyton mentagrophytes, 445, TM
Description: as §1

Candida glabrata 20/I = test: Antifungal evaluation, microdilution broth method; type: cell-based; details: Nakaseomyces glabratus, 20/I, CG
Description: as §1

Candida krusei E28 = test: Antifungal evaluation, microdilution broth method; type: cell-based; details: Pichia kudriavzevii, E28, CK
Description: as §1

[8] = tested on: spectrum of fungi tested (8 fungal strains); test: Antifungal evaluation, summary over the fungi tested; type: cell-based; details: fungi tested, less active than the standards; read-out: IC80 antifungal
Description: as §1

Which MIC [1] does the source give for `NNC(=O)c1ccncc1` [isoniazid] here?
Its MIC is 0.39 µg/mL (≈ 2.84 µM).

For `NC(=O)c1nccnc1NC1CCCC1` [Compound 11, 3-(Cyclopentylamino)pyrazine-2-carboxamide], which IC50 [2] is on record?
The IC50 was 25.8 µM.

And the logk [3]?
Its logk is 0.2537.

And the IC80 ([4]; 24 h)?
The IC80 was 500 µM.

And the IC80 ([4]; 48 h)?
The IC80 was greater than 500 µM.

What about the IC80 ([5]; 24 h) of the same compound?
The IC80 was 500 µM.

What about the IC80 ([5]; 48 h) of the same compound?
The IC80 was greater than 500 µM.

And the IC80 ([6]; 24 h)?
Its IC80 is greater than 500 µM.

And the IC80 ([6]; 48 h)?
Its IC80 is greater than 500 µM.

What about the IC80 (Trichosporon asahii 1188; 24 h) of the same compound?
The IC80 was 500 µM.

And the IC80 (Trichosporon asahii 1188; 48 h)?
The IC80 was greater than 500 µM.

And the IC80 (Candida tropicalis 156; 24 h)?
Its IC80 is greater than 500 µM.

And the IC80 (Candida tropicalis 156; 48 h)?
The IC80 was greater than 500 µM.

What about the IC80 ([7]; 72 h) of the same compound?
Its IC80 is 500 µM.

And the IC80 ([7]; 120 h)?
The IC80 was 500 µM.

What about the IC80 (Candida glabrata 20/I; 24 h) of the same compound?
Its IC80 is 250 µM.

And the IC80 (Candida glabrata 20/I; 48 h)?
Its IC80 is greater than 500 µM.

And the IC80 (Candida krusei E28; 24 h)?
The IC80 was 250 µM.

And the IC80 (Candida krusei E28; 48 h)?
The IC80 was 500 µM.

And the IC80 [8]?
The IC80 was no less than 250 µM.

What does the source list for “3-(Pyrrolidin-1-ylamino)pyrazine-2-carboxamide [Compound 14]”?
PET inhibition (result in words) [2]: did not inhibit PET; logk [3]: −0.4889

Which logk [3] does the source give for `CCCCCCCNc1nccnc1C(N)=O` [Compound 8, 3-(Heptylamino)pyrazine-2-carboxamide] here?
Its logk is 0.9198.

What about the IC80 [8] of the same compound?
The IC80 was no less than 250 µM.

For `CNc1nccnc1C(N)=O` [Compound 1, 3-(Methylamino)pyrazine-2-carboxamide], which “PET inhibition (result in words)” value [2] is on record?
Its value is “did not inhibit PET”.

What about the logk [3] of the same compound?
The logk was −0.4028.

Which IC50 [2] does the source give for `CCCCCCCCNc1nccnc1C(N)=O` [Compound 9, 3-(Octylamino)pyrazine-2-carboxamide] here?
Its IC50 is 14.3 µM.

What about the logk [3] of the same compound?
The logk was 1.1533.

Which IC50 [2] does the source give for `CCCCNc1nccnc1C(N)=O` [Compound 4, 3-(Butylamino)pyrazine-2-carboxamide] here?
The IC50 was 203 µM.

And the logk [3]?
Its logk is 0.2287.

And the IC80 [8]?
The IC80 was no less than 250 µM.

Which IC50 [2] does the source give for `CN(C)C(=O)Nc1ccc(Cl)c(Cl)c1` [DCMU, 3-(3,4-dichlorophenyl)-1,1-dimethylurea, reference compound] here?
Its IC50 is 1.9 µM.

What does the source list for `CCCCN(CCCC)c1nccnc1C(N)=O` [Compound 10, 3-(Dibutylamino)pyrazine-2-carboxamide]?
PET inhibition (result in words) [2]: did not inhibit PET; logk [3]: 0.5197

Which results are given for `OC(Cn1cncn1)(Cn1cncn1)c1ccc(F)cc1F` [FLU, fluconazole]?
IC80 ([4]; 24 h): > 500 µM; IC80 ([4]; 48 h): > 500 µM; IC80 ([5]; 24 h): 0.24 µM; IC80 ([5]; 48 h): 0.24 µM; IC80 ([6]; 24 h): > 500 µM; IC80 ([6]; 48 h): > 500 µM; IC80 (Trichosporon asahii 1188; 24 h): 250 µM; IC80 (Trichosporon asahii 1188; 48 h): 500 µM; IC80 (Candida tropicalis 156; 24 h): > 500 µM; IC80 (Candida tropicalis 156; 48 h): > 500 µM; IC80 ([7]; 72 h): 7.81 µM; IC80 ([7]; 120 h): 125 µM; IC80 (Candida glabrata 20/I; 24 h): 31.2 µM; IC80 (Candida glabrata 20/I; 48 h): 250 µM; IC80 (Candida krusei E28; 24 h): 125 µM; IC80 (Candida krusei E28; 48 h): 250 µM

With `NC(=O)c1nccnc1N1CCOCC1` [Compound 16, 3-(Morpholin-4-yl)pyrazine-2-carboxamide] as the compound, how does the “PET inhibition (result in words)” value [2] read?
The value was “did not inhibit PET”.

And the logk [3]?
Its logk is −0.6238.

What does the source list for `CCCNc1nccnc1C(N)=O` [Compound 3, 3-(Propylamino)pyrazine-2-carboxamide]?
IC50 [2]: 1590 µM; logk [3]: 0.0038

— paper PMC6271988, “New Potentially Active Pyrazinamide Derivatives Synthesized Under Microwave Conditions” (Molecules, 2014)
